The target of this test is Cathepsin L (Homo sapiens (Human), UniProt P07711). As to the kind of experiment: Cathepsin enzyme inhibition assay (fluorogenic peptide substrate Z-Val-Val-Arg-AMC). In kind it is biochemical. Particulars: enzyme 1 nM, substrate 20 μM, pH 6.5. How it is done: Enzyme activity is measured by observing the increase in fluorescence intensity caused by cleavage of a peptide substrate containing a fluorophore whose emission is quenched in the intact peptide.
Cathepsin L, sequence (P07711 114-333): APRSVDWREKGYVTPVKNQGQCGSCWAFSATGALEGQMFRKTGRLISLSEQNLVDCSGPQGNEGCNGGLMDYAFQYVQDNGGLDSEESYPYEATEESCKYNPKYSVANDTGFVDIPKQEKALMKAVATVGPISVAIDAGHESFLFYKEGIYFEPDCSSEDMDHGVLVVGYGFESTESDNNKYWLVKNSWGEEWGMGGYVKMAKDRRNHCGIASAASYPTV
Assay buffer: 100 mM potassium phosphate pH 6.5, EDTA-Na 5 mM, Triton X-100 0.001%, DDT 5 mM.
Enzymes (all at 1 nM): human and mouse Cathepsin S, Cat K, Cat B, Cat L
Substrate (20 μM): Z-Val-Val-Arg-AMC, except for Cat K which uses Z-Leu-Arg-AMC (both from Bachem).
AMC=7-Amino-4-Methyl-Coumarin.
Excitation 360 nm, Emission 465 nm.
Enzyme is added to the substance dilutions in 96-well microtitre plates and the reaction is started with substrate. […] IC50 are calculated by standard methods. The results are expressed in μM in the following table.
In the case of `N#CC1(NC(=O)[C@@H]2Cc3ccc(c(Cl)c3)OC/C=C/COc3cc(Cl)ccc3C(=O)N2)CC1` [Example 33, (E)-(S)-9,19-Dichloro-5-oxo-12,17-dioxa-4-aza-tricyclo[16.2.2.0*6,11*]docosa-1(21),6,8,10,14,18(22),19-heptaene-3-carboxylic acid (1-cyano-cyclopropyl)-amide], the IC50 (usually the point on the concentration scale where inhibition reaches its midpoint) is 0.073 µM.
`N#CC1(NC(=O)[C@@H]2Cc3ccc(c(Cl)c3)OC/C=C/COc3ccc(F)cc3C(=O)N2)CC1` [Example 32, (E)-(S)-19-Chloro-8-fluoro-5-oxo-12,17-dioxa-4-aza-tricyclo[16.2.2.0*6,11*]docosa-1(21),6,8,10,14,18(22),19-heptaene-3-carboxylic acid (1-cyano-cyclopropyl)-amide] registered an IC50 of 0.016 µM.
`N#CC1(NC(=O)[C@@H]2Cc3ccc(c(Cl)c3)OCCCCOc3ccc(Br)cc3C(=O)N2)CC1` [Example 9, (S)-8-Bromo-19-chloro-5-oxo-12,17-dioxa-4-aza-tricyclo[16.2.2.0%6,11&]docosa-1(21),6,8,10,18(22),19-hexaene-3-carboxylic acid (1-cyano-cyclopropyl)-amide] came in with an IC50 of 0.01 µM.
Compound `N#CC1(NC(=O)[C@@H]2Cc3ccc(c(I)c3)OC/C=C/COc3ccc(Cl)cc3C(=O)N2)CC1` [Example 28, (E)-(S)-8-Chloro-19-iodo-5-oxo-12,17-dioxa-4-aza-tricyclo[16.2.2.0*6,11*]docosa-1(21),6,8,10,14,18(22),19-heptaene-3-carboxylic acid (1-cyano-cyclopropyl)-amide] had an IC50 of 0.011 µM.
`N#CC1(NC(=O)[C@@H]2Cc3ccc(c(Cl)c3)OC/C=C\COc3ccc(F)c(F)c3C(=O)N2)CC1` [Example 46, (Z)—(S)-19-Chloro-7,8-difluoro-5-oxo-12,17-dioxa-4-aza-tricyclo[16.2.2.0*6,11*]docosa-1(21),6,8,10,14,18(22),19-heptaene-3-carboxylic acid (1-cyano-cyclopropyl)-amide] yielded an IC50 of 0.054 µM.
On to `N#CC1(NC(=O)[C@@H]2Cc3ccc(c(Cl)c3)OC/C=C/COc3cc4c(cc3C(=O)N2)CCCC4)CC1` [Example 27, (3E,12S)-22-chloro-N-(1-cyanocyclopropyl)-14-oxo-2,5,11,12,13,14,16,17,18,19-decahydro-7,10-ethenonaphtho[2,3-b][1,12,5]dioxazacyclohexadecine-12-carboxamide], for which the IC50 came out at 0.016 µM.
With `N#CC1(NC(=O)[C@@H]2Cc3ccc(c(Cl)c3)OC/C=C/COc3cc(C(F)(F)F)ccc3C(=O)N2)CC1` [Example 20, (E)-(S)-19-Chloro-5-oxo-9-trifluoromethyl-12,17-dioxa-4-aza-tricyclo[16.2.2.0*6,11*]docosa-1(21),6,8,10,14,18(22),19-heptaene-3-carboxylic acid (1-cyano-cyclopropyl)-amide], inhibition was half-maximal at 0.0477 µM (IC50).
Turning to `N#CC1(NC(=O)[C@@H]2Cc3ccc(c(Cl)c3)OC/C=C/CNc3ccccc3C(=O)N2)CC1` [Example 21, (E)-(S)-19-Chloro-5-oxo-17-oxa-4,12-diaza-tricyclo[16.2.2.0*6,11*]docosa-1(21),6,8,10,14,18(22),19-heptaene-3-carboxylic acid (1-cyano-cyclopropyl)-amide], the IC50 was found to be 0.054 µM.
Consider `N#CC1(NC(=O)[C@@H]2Cc3ccc(c(Cl)c3)OCCCCOc3ccc(F)c(F)c3C(=O)N2)CC1` [Example 50, (S)-19-Chloro-7,8-difluoro-5-oxo-12,17-dioxa-4-aza-tricyclo[16.2.2.0*6,11*]docosa-1(21),6,8,10,18(22),19-hexaene-3-carboxylic acid (1-cyano-cyclopropyl)-amide], for which the midpoint of inhibition, the IC50, lay at 0.0135 µM.
On to `N#CC1(NC(=O)[C@@H]2Cc3ccc(c(Cl)c3)OCCCCOc3cc(Cl)ccc3C(=O)N2)CC1` [Example 36, (S)-9,19-Dichloro-5-oxo-12,17-dioxa-4-aza-tricyclo[16.2.2.0*6,11*]docosa-1(21),6,8,10,18(22),19-hexaene-3-carboxylic acid (1-cyano-cyclopropyl)-amide], for which the midpoint of inhibition, the IC50, lay at 0.05 µM.
In turn, `N#CC1(NC(=O)[C@@H]2Cc3ccc(c(Cl)c3)OC/C=C/COc3c(F)cc(F)cc3C(=O)N2)CC1` [Example 44, (E-Z)—(S)-19-Chloro-8,10-difluoro-5-oxo-12,17-dioxa-4-aza-tricyclo[16.2.2.0*6,11*]docosa-1(21),6,8,10,14,18(22),19-heptaene-3-carboxylic acid (1-cyano-cyclopropyl)-amide] registered an IC50 of 0.0092 µM.
Under `COc1ccc2c(c1)CCCCCOc1ccc(cc1Cl)C[C@@H](C(=O)NC1(C#N)CC1)NC2=O` [Example 22, (S)-19-Chloro-9-methoxy-5-oxo-17-oxa-4-aza-tricyclo[16.2.2.0*6,11*]docosa-1(21),6,8,10,18(22),19-hexaene-3-carboxylic acid (1-cyano-cyclopropyl)-amide] stands 0.118 µM; under `CC1(C)CC2C(=O)N[C@H](C(=O)NC3(C#N)CC3)Cc3ccc(c(Cl)c3)OC/C=C/CCN2C1` (mixture of isomers) [Example 15, (E)-(S)-18-Chloro-8,8-dimethyl-5-oxo-16-oxa-4,10-diaza-tricyclo[15.2.2.0*6,10*]henicosa-1(20),13,17(21),18-tetraene-3-carboxylic acid (1-cyano-cyclopropyl)-amide], 0.168 µM; under `N#CC1(NC(=O)[C@@H]2Cc3ccc(c(Cl)c3)OC/C=C/CCN3CC(F)(F)CC3C(=O)N2)CC1` (mixture of isomers) [Example 14, (E)-(S)-18-Chloro-8,8-difluoro-5-oxo-16-oxa-4,10-diaza-tricyclo[15.2.2.0*6,10*]henicosa-1(20),13,17(21),18-tetraene-3-carboxylic acid (1-cyano-cyclopropyl)-amide], 6.06 µM.
As for `N#CC1(NC(=O)[C@@H]2Cc3ccc(c(Cl)c3)OC/C=C/COc3cccc(c3)C(=O)N2)CC1` [Example 6, (E)-(S)-18-Chloro-5-oxo-11,16-dioxa-4-aza-tricyclo[15.2.2.1*6,10*]docosa-1(20),6,8,10(22),13,17(21),18-heptaene-3-carboxylic acid (1-cyano-cyclopropyl)-amide], the IC50 was found to be 0.032 µM.
As to `N#CC1(NC(=O)[C@@H]2Cc3ccc(c(Cl)c3)OC/C=C/COc3ccc(C4CNC4)cc3C(=O)N2)CC1` [Example 41, (E)-(S)-8-Azetidin-3-yl-19-chloro-5-oxo-12,17-dioxa-4-aza-tricyclo[16.2.2.0*6,11*]docosa-1(21),6,8,10,14,18(22),19-heptaene-3-carboxylic acid (1-cyano-cyclopropyl)-amide], the concentration for half-maximal inhibition (IC50) came out at 0.0052 µM.
As for `N#CC1(NC(=O)[C@@H]2Cc3ccc(c(Cl)c3)OCCCCOc3cc4c(cc3C(=O)N2)CCCC4)CC1` [Example 29, (12S)-22-chloro-N-(1-cyanocyclopropyl)-14-oxo-2,3,4,5,11,12,13,14,16,17,18,19-dodecahydro-7,10-ethenonaphtho[2,3-b][1,12,5]dioxazacyclohexadecine-12-carboxamide], half-maximal inhibition (IC50) was put at 0.013 µM.
Take `N#CC1(NC(=O)[C@@H]2Cc3ccc(cc3)OC/C=C/CCc3ccccc3C(=O)N2)CC1` [Example 3, (E)-(S)-5-Oxo-17-oxa-4-aza-tricyclo[16.2.2.0%6,11&]docosa-1(21),6,8,10,14,18(22),19-heptaene-3-carboxylic acid (1-cyano-cyclopropyl)-amide]: the 50% inhibitory concentration (IC50) came to 0.077 µM.

The record behind these values is patent US9290467B2, “Cyclic amides” (Hoffmann-La Roche Inc., priority 2012, dated 2016).
